System: 817829-284-R-J1-PDC complex spheroid viability
Assay: Anticancer human tumor 817829-284-R-J1-PDC patient-derived colon adenocarcinoma cell line growth inhibition [POLQ]
Conditions: for IC50: curve of first compound; for viability, T/C: stronger effect = lower value
Outline: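 Complex spheroid viability model combining PDC tumour cells with endothelial (HUVEC) and MSC stromal cells. Novobiocin, ART-558 or RP6685 were tested singly and in combination with standard and investigational anticancer drugs. Each was titrated in half-log steps from near clinical Cmax, or from 10 microM where Cmax was unknown.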

[1] = second compound 0.0316 µM, first compound 0.0316 µM
[2] = second compound 0.0316 µM, first compound 0.1 µM
[3] = second compound 0.0316 µM, first compound 0.316 µM
[4] = second compound 0.0316 µM, first compound 1 µM
[5] = second compound 0.0316 µM, first compound 3.16 µM
[6] = second compound 0.0316 µM, first compound 10 µM
[7] = second compound 0.1 µM, first compound 0.0316 µM
[8] = second compound 0.1 µM, first compound 0.1 µM
[9] = second compound 0.1 µM, first compound 0.316 µM
[10] = second compound 0.1 µM, first compound 1 µM
[11] = second compound 0.1 µM, first compound 3.16 µM
[12] = second compound 0.1 µM, first compound 10 µM
[13] = second compound 0.316 µM, first compound 0.0316 µM
[14] = second compound 0.316 µM, first compound 0.1 µM
[15] = second compound 0.316 µM, first compound 0.316 µM
[16] = second compound 0.316 µM, first compound 1 µM
[17] = second compound 0.316 µM, first compound 3.16 µM
[18] = second compound 0.316 µM, first compound 10 µM
[19] = second compound 1 µM, first compound 0.0316 µM
[20] = second compound 1 µM, first compound 0.1 µM
[21] = second compound 1 µM, first compound 0.316 µM
[22] = second compound 1 µM, first compound 1 µM
[23] = second compound 1 µM, first compound 3.16 µM
[24] = second compound 1 µM, first compound 10 µM
[25] = second compound 3.16 µM, first compound 0.0316 µM
[26] = second compound 3.16 µM, first compound 0.1 µM
[27] = second compound 3.16 µM, first compound 0.316 µM
[28] = second compound 3.16 µM, first compound 1 µM
[29] = second compound 3.16 µM, first compound 3.16 µM
[30] = second compound 3.16 µM, first compound 10 µM
[31] = second compound 10 µM, first compound 0.0316 µM
[32] = second compound 10 µM, first compound 0.1 µM
[33] = second compound 10 µM, first compound 0.316 µM
[34] = second compound 10 µM, first compound 1 µM
[35] = second compound 10 µM, first compound 3.16 µM
[36] = second compound 10 µM, first compound 10 µM
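Note: spheroids exposed to compounds for 7 days.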
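Throughout, for viability, T/C: 100% = DMSO vehicle-treated spheroids.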

CCc1cc2c(N3CCc4c(cc(Cn5ccnc5)cc4-c4cn(C)nc4C(F)(F)F)C3=O)cc(C)nc2c(OC)n1 + Cc1cccc(N(C)C(=O)C2C(O)CCN2c2nc(C)cc(C(F)(F)F)c2C#N)c1
IC50 (second compound 0.0316 µM): 1780 nM
IC50 (second compound 0.1 µM): 2490 nM
IC50 (second compound 0.316 µM): 1180 nM
IC50 (second compound 1 µM): 1630 nM
IC50 (second compound 3.16 µM): 2680 nM
IC50 (second compound 10 µM): 1360 nM
viability, T/C [1]: 85.3%
viability, T/C [2]: 65.6%
viability, T/C [3]: 68.5%
viability, T/C [4]: 59.6%
viability, T/C [5]: 41.8%
viability, T/C [6]: 32.9%
viability, T/C [7]: 88.9%
viability, T/C [8]: 77.5%
viability, T/C [9]: 62.2%
viability, T/C [10]: 73.8%
viability, T/C [11]: 43.6%
viability, T/C [12]: 28.8%
viability, T/C [13]: 72%
viability, T/C [14]: 83.9%
viability, T/C [15]: 94%
viability, T/C [16]: 53.1%
viability, T/C [17]: 38.8%
viability, T/C [18]: 22.9%
viability, T/C [19]: 84.1%
viability, T/C [20]: 64.3%
viability, T/C [21]: 81.8%
viability, T/C [22]: 52.9%
viability, T/C [23]: 43.3%
viability, T/C [24]: 30.2%
viability, T/C [25]: 79.4%
viability, T/C [26]: 87.9%
viability, T/C [27]: 66.6%
viability, T/C [28]: 59.3%
viability, T/C [29]: 51%
viability, T/C [30]: 33.8%
viability, T/C [31]: 71.4%
viability, T/C [32]: 78.2%
viability, T/C [33]: 66.2%
viability, T/C [34]: 56.9%
viability, T/C [35]: 34.3%
viability, T/C [36]: 26.7%

COc1ccc([C@@H](O)c2cc(-c3ncnc4cc(N5CCOCC5)ccc34)c(F)cc2Cl)nn1 + Cc1cccc(N(C)C(=O)C2C(O)CCN2c2nc(C)cc(C(F)(F)F)c2C#N)c1
IC50 (second compound 0.0316 µM): 715 nM
IC50 (second compound 0.1 µM): 719 nM
IC50 (second compound 0.316 µM): 932 nM
IC50 (second compound 1 µM): 1220 nM
IC50 (second compound 3.16 µM): 474 nM
IC50 (second compound 10 µM): 751 nM
viability, T/C [1]: 112%
viability, T/C [2]: 112%
viability, T/C [3]: 72%
viability, T/C [4]: 42.3%
viability, T/C [5]: 22.3%
viability, T/C [6]: 17.9%
viability, T/C [7]: 103%
viability, T/C [8]: 80.3%
viability, T/C [9]: 66.9%
viability, T/C [10]: 40.8%
viability, T/C [11]: 32.7%
viability, T/C [12]: 19.9%
viability, T/C [13]: 107%
viability, T/C [14]: 74.6%
viability, T/C [15]: 102%
viability, T/C [16]: 47.1%
viability, T/C [17]: 28.3%
viability, T/C [18]: 15.5%
viability, T/C [19]: 111%
viability, T/C [20]: 105%
viability, T/C [21]: 92.2%
viability, T/C [22]: 54.5%
viability, T/C [23]: 28.1%
viability, T/C [24]: 21.9%
viability, T/C [25]: 98.6%
viability, T/C [26]: 130%
viability, T/C [27]: 62%
viability, T/C [28]: 38.3%
viability, T/C [29]: 27%
viability, T/C [30]: 18.6%
viability, T/C [31]: 92%
viability, T/C [32]: 81%
viability, T/C [33]: 70.8%
viability, T/C [34]: 41.4%
viability, T/C [35]: 26.3%
viability, T/C [36]: 13.5%

Cn1ncnc1[C@H]1c2n[nH]c(=O)c3cc(F)cc(c23)N[C@@H]1c1ccc(F)cc1 + Cc1cccc(N(C)C(=O)C2C(O)CCN2c2nc(C)cc(C(F)(F)F)c2C#N)c1
IC50 (second compound 0.0316 µM): 10.2 nM
IC50 (second compound 0.1 µM): 17.9 nM
IC50 (second compound 0.316 µM): 14.2 nM
IC50 (second compound 1 µM): 6.63 nM
IC50 (second compound 3.16 µM): 12 nM
IC50 (second compound 10 µM): 6.59 nM
viability, T/C (second compound 0.0316 µM, first compound 0.000316 µM): 79.7%
viability, T/C (second compound 0.0316 µM, first compound 0.001 µM): 88.5%
viability, T/C (second compound 0.0316 µM, first compound 0.00316 µM): 79%
viability, T/C (second compound 0.0316 µM, first compound 0.01 µM): 48.3%
viability, T/C [1]: 39.4%
viability, T/C [2]: 25.8%
viability, T/C (second compound 0.1 µM, first compound 0.000316 µM): 103%
viability, T/C (second compound 0.1 µM, first compound 0.001 µM): 93.2%
viability, T/C (second compound 0.1 µM, first compound 0.00316 µM): 58.9%
viability, T/C (second compound 0.1 µM, first compound 0.01 µM): 69%
viability, T/C [7]: 39.2%
viability, T/C [8]: 30%
viability, T/C (second compound 0.316 µM, first compound 0.000316 µM): 65.8%
viability, T/C (second compound 0.316 µM, first compound 0.001 µM): 82.8%
viability, T/C (second compound 0.316 µM, first compound 0.00316 µM): 85.4%
viability, T/C (second compound 0.316 µM, first compound 0.01 µM): 57.6%
viability, T/C [13]: 36.8%
viability, T/C [14]: 28.6%
viability, T/C (second compound 1 µM, first compound 0.000316 µM): 89.3%
viability, T/C (second compound 1 µM, first compound 0.001 µM): 97.8%
viability, T/C (second compound 1 µM, first compound 0.00316 µM): 68.8%
viability, T/C (second compound 1 µM, first compound 0.01 µM): 42.5%
viability, T/C [19]: 46.1%
viability, T/C [20]: 29.5%
viability, T/C (second compound 3.16 µM, first compound 0.000316 µM): 99.1%
viability, T/C (second compound 3.16 µM, first compound 0.001 µM): 80%
viability, T/C (second compound 3.16 µM, first compound 0.00316 µM): 72.4%
viability, T/C (second compound 3.16 µM, first compound 0.01 µM): 47.4%
viability, T/C [25]: 41.3%
viability, T/C [26]: 28.4%
viability, T/C (second compound 10 µM, first compound 0.000316 µM): 64.5%
viability, T/C (second compound 10 µM, first compound 0.001 µM): 86%
viability, T/C (second compound 10 µM, first compound 0.00316 µM): 54.8%
viability, T/C (second compound 10 µM, first compound 0.01 µM): 47.1%
viability, T/C [31]: 30.4%
viability, T/C [32]: 29.7%
